From patent US8835622B2, “Expression cassettes for seed-specific expression in plants” (Bayer BioScience N.V., priority 2008, dated 2014)
“Also recorded” adds a separate entry of the source. Read-outs that look alike come from different tables or passages of the source.

Test system: CYP704A2
Assay: Enzyme activity and substrate specificity of recombinant CYP704A2 (microsomes from yeast, radiolabeled substrates, TLC and GC/MS of metabolites)
Type: biochemical, Arabidopsis thaliana
Settings: for substrate of CYP704A2 / relative rate of metabolism (in words): 100 μM 14C radiolabelled substrate, with NADPH, TLC; for substrate of CYP704A2 / relative rate of metabolism (in words) / Product (nmole/min/nmole P450) / % of metabolisation: 20 min at 27° C.; for Product (nmole/min/nmole P450) / % of metabolisation: microsomes from yeast expressing CYP704A2, 100 μM radiolabeled substrate, 78 pmoles of CYP704A2, TLC
Experimental: Heterologous expression of CYP704A2 in Yeast—For functional expression of the full length CYP704A2 clone, we used a yeast expression system specifically developed for the expression of P450 enzymes and consisting of plasmid pYeDP60 and Saccharomyces cerevisiae WAT11 strain (Pompon D. et al (1996) Methods Enzymol 272, 51-64). Yeast cultures were grown and CYP704A2 expression was induced as described in Pompon et al. (1996) see above from one isolated transformed colony. After growth, cells were harvested by centrifugation and manually broken with glass beads (0.45 mm diameter) in 50 mM Tris-HCl buffer (pH 7.5) containing 1 mM EDTA and 600 mM sorbitol. The homogenate was centrifuged for 10 min at 10,000 g. The resulting supernatant was centrifuged for 1 h at 100,000 g. The pellet consisting of microsomal membranes was resuspended in 50 mM Tris-HCl (pH 7.4), 1 mM EDTA and 30% (v/v) glycerol with a Potter-Elvehjem homogenizer and stored at −30° C. The volume of resuspension buffer is proportional to the weight of yeast pellet: microsomes extracted from 6 g of yeast are resuspended in 3 ml of buffer. All procedures for microsomal preparation were carried out at 0-4° C. The cytochrome P450 content was measured by the method of Omura and Sato (1964) J Biol Chem 239, 2370-2378.
Enzyme activities—radiolabeled substrates were dissolved in ethanol that was evaporated before the addition of microsomes into the glass tube. Resolubilization of the substrates was confirmed by measuring the radioactivity of the incubation media. Enzymatic activities of CYP704A2 from transformed yeast or Arabidopsis microsomes were determined by following the formation rate of metabolites. The standard assay (0.1 ml) contained 20 mM sodium phosphate (pH 7.4), 1 mM NADPH, and radiolabeled substrate (100 μM). The reaction was initiated by the addition of NADPH and was stopped by the addition of 20 μl acetonitrile (containing 0.2% acetic acid). The reaction products were resolved by TLC or HPLC as described below.
Thin layer chromatographic (TLC) methods—Incubation media were directly spotted on TLC plates. For separation of metabolites from residual substrate, TLC were developed with a mixture of diethyl ether/light petroleum (boiling point, 40-60° C.)/formic acid (50:50:1, v/v/v). The plates were scanned with a radioactivity detector (Raytest Rita Star). The area corresponding to the metabolites were scraped into counting vials and quantified by liquid scintillation, or they were eluted from the silica with 10 ml of diethyl ether, which was removed by evaporation. They were then subjected to GC/MS analysis.
GC/MS analysis—GC-MS analysis were carried out on a gas chromatograph (Agilent 6890 Series) equipped with a 30-m capillary column with an internal diameter of 0.25 mm and a film thickness of 0.25 μm (HP-5MS). The gas chromatograph was combined with a quadrupole mass selective detector (Agilent 5973N). Mass spectra were recorded at 70 eV and analysed as in Eglinton et al. (1968) Org. Mass. Spectrom 1, 593-611.
The enzyme activity and substrate specificity of CYP704A2 was subsequently evaluated. Thereto 20 μl of microsomal membranes overexpressing CYP704A2 (i.e. […]) were incubated 20 min at 27° C. with 100 μM of different ^14C radiolabelled fatty acids, alkanols or alkanes (purchased with American Radiolabeled Chemicals) together with 0.1 mM of NADPH, 0.4 Units of glucose-6-phosphate dehydrogenase, 3 mM glucose-6-phosphate in buffer NaPi 20 mM, pH 7.4 in a final reaction volume of 100 μl. The reaction was quenched by the addition of 20 μl of 20% of acetonitrile in water, and the incubation mix was spotted on silicagel 60F254 plates (Merck) for analysis. Plates were developed with a mix of ether/petroleum ether/formic acid 50/50/1 until the migration front reached the top of the plate. Dried plates were then scanned with a Raytest radioisotope thin-layer analyzer and radioactivity in the spots of interest was quantified in order to evaluate the substrate conversion. […]

Row | Structure (SMILES) | Product (nmole/min/nmole P450) | substrate of CYP704A2 / relative rate of metabolism (in words) | also measured
1 | CCCCCCCCCCCCCC(=O)O [myristic acid] | – | not substrates | –
2 | CCCCCC/C=C\CCCCCCCC(=O)O [palmitoleic acid] | – | not substrates | –
3 | CCCCCCCCCCCCCCCCCC(=O)O [stearic acid] | – | not substrates; also recorded: not metabolized | –
4 | CCCCCCCCCCCCCCCC [C16 alkane, hexadecane] | 22.4 | – | products formed on incubation with CYP704A2 (TLC, GC/MS) (incubation with CYP704A2, products purified on TLC and identified by GC/MS): formation of three more polar compounds; % of metabolisation: 7.1%
5 | CCCCCCCCCCCCCCCC(=O)O [C16:0, palmitic acid] | 18.3 | preferentially metabolized | substrate of CYP704A2 / relative rate of metabolism (in words) (listed as palmitic acid): best substrate; rate of palmitic acid metabolism (concentration of palmitic acid of 100 μM): 18.3 nmol/min/nmole of P450; % of metabolisation: 14.3%
6 | CCCCCCCCCCCCO [C12-OH:0, dodecanol] | 12.6 | – | products formed on incubation with CYP704A2 (TLC, GC/MS): formation of two more polar compounds

Second part, led by results:

Row | Product (nmole/min/nmole P450) | Structure (SMILES) | substrate of CYP704A2 / relative rate of metabolism (in words) | also measured
7 | 6.5 | CCCCCCCCCCCCCCCCO [C16-OH:0] | – | –
8 | 7.3 | CCCCCCCCCCCC(=O)O [C12:0, lauric acid] | – | –
